Assay results taken from PubChem BioAssay (NCI).
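Test compounds were applied to cells in 96-well plates for 48 hours at 5 doses. GI50 = concentration required for 50% inhibition of growth. The concentration for full growth arrest is given as TGI.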

How the values were obtained:
Assay in all cases: inhibition of tumour cell growth, NCI panel, 48 h; in the data active = GI50 below about 0.43 µM; inactive = the rest
786-0 renal = system: 786-0 renal
A498 renal = system: A498 renal
A549 NSCLC = system: A549 NSCLC
ACHN renal = system: ACHN renal
BT-549 breast = system: BT-549 breast
CAKI-1 renal = system: CAKI-1 renal
CCRF-CEM leukemia = system: CCRF-CEM leukemia
COLO 205 colon = system: COLO 205 colon
DU-145 prostate = system: DU-145 prostate
EKVX NSCLC = system: EKVX NSCLC
HCC-2998 colon = system: HCC-2998 colon
HCT-116 colon = system: HCT-116 colon
HCT-15 colon = system: HCT-15 colon
HL-60(TB) leukemia = system: HL-60(TB) leukemia
HOP-62 NSCLC = system: HOP-62 NSCLC
HOP-92 NSCLC = system: HOP-92 NSCLC
HS 578T breast = system: HS 578T breast
HT29 colon = system: HT29 colon
IGROV1 ovarian = system: IGROV1 ovarian
KM12 colon = system: KM12 colon
LOX IMVI melanoma = system: LOX IMVI melanoma
M14 melanoma = system: M14 melanoma
MCF7 breast = system: MCF7 breast
MDA-MB-231 breast = system: MDA-MB-231 breast
MDA-MB-435 = system: MDA-MB-435
MOLT-4 leukemia = system: MOLT-4 leukemia
NCI-H23 lung = system: NCI-H23 lung
NCI-H460 lung = system: NCI-H460 lung
NCI-H522 lung = system: NCI-H522 lung
NCI/ADR-RES ovarian = system: NCI/ADR-RES ovarian
OVCAR-3 ovarian = system: OVCAR-3 ovarian
OVCAR-5 ovarian = system: OVCAR-5 ovarian
OVCAR-8 ovarian = system: OVCAR-8 ovarian
PC-3 prostate = system: PC-3 prostate
RPMI-8226 leukemia = system: RPMI-8226 leukemia
RXF 393 renal = system: RXF 393 renal
SF-268 CNS = system: SF-268 CNS
SF-295 CNS = system: SF-295 CNS
SF-539 CNS = system: SF-539 CNS
SK-MEL-2 melanoma = system: SK-MEL-2 melanoma
SK-MEL-28 melanoma = system: SK-MEL-28 melanoma
SK-MEL-5 melanoma = system: SK-MEL-5 melanoma
SK-OV-3 ovarian = system: SK-OV-3 ovarian
SN12C renal = system: SN12C renal
SNB-19 CNS = system: SNB-19 CNS
SR leukemia = system: SR leukemia
SW-620 colon = system: SW-620 colon
T-47D breast = system: T-47D breast
TK-10 renal = system: TK-10 renal
U251 CNS = system: U251 CNS
UACC-257 melanoma = system: UACC-257 melanoma
UACC-62 melanoma = system: UACC-62 melanoma
UO-31 renal = system: UO-31 renal

O=C(O)c1ccc(N(/C=C/C(=O)C(F)(F)F)Cc2ccc(Cl)cc2)cc1
48.9 µM: TGI (IGROV1 ovarian)
66 µM: TGI (ACHN renal)
82.4 µM: TGI (HOP-92 NSCLC)
59.7 µM: TGI (HCT-15 colon)
84 µM: TGI (SK-MEL-28 melanoma)
64.8 µM: TGI (NCI-H23 lung)
47.9 µM: TGI (EKVX NSCLC)
84.7 µM: TGI (HS 578T breast)
54.8 µM: TGI (HCT-116 colon)
68.4 µM: TGI (NCI/ADR-RES ovarian)
86.7 µM: TGI (U251 CNS)
53.3 µM: TGI (SK-MEL-2 melanoma)
42.1 µM: TGI (SF-539 CNS)
62.1 µM: TGI (DU-145 prostate)
86.8 µM: TGI (UACC-257 melanoma)
60.8 µM: TGI (TK-10 renal)
65.3 µM: TGI (HOP-62 NSCLC)
51.8 µM: TGI (LOX IMVI melanoma)
61.9 µM: TGI (NCI-H522 lung)
62.7 µM: TGI (M14 melanoma)
62.9 µM: TGI (A498 renal)
71.5 µM: TGI (SR leukemia)
93.9 µM: TGI (T-47D breast)
66.3 µM: TGI (UACC-62 melanoma)
48.2 µM: TGI (MDA-MB-231 breast)
72.5 µM: TGI (OVCAR-3 ovarian)
15.7 µM: TGI (UO-31 renal)
78.4 µM: TGI (OVCAR-8 ovarian)
59.9 µM: TGI (KM12 colon)
81.1 µM: TGI (SK-MEL-5 melanoma)
44.3 µM: TGI (HCC-2998 colon)
67 µM: TGI (BT-549 breast) | TGI (SF-295 CNS)
inactive: GI50 (786-0 renal) 31.4 µM | GI50 (A498 renal) 22 µM | GI50 (A549 NSCLC) 34.9 µM | GI50 (ACHN renal) 24.4 µM | GI50 (BT-549 breast) 38.7 µM | GI50 (CAKI-1 renal) 34.6 µM | GI50 (CCRF-CEM leukemia) 25.8 µM | GI50 (COLO 205 colon) 36.7 µM | GI50 (DU-145 prostate) 22.4 µM | GI50 (EKVX NSCLC) 19.6 µM | GI50 (HCC-2998 colon) 19.8 µM | GI50 (HCT-116 colon) 20.5 µM | GI50 (HCT-15 colon) 21.4 µM | GI50 (HL-60(TB) leukemia) 40.2 µM | GI50 (HOP-62 NSCLC) 24.5 µM | GI50 (HOP-92 NSCLC) 19.5 µM | GI50 (HS 578T breast) 26.4 µM | GI50 (HT29 colon) 37 µM | GI50 (IGROV1 ovarian) 20.3 µM | GI50 (KM12 colon) 23.2 µM | GI50 (LOX IMVI melanoma) 21.4 µM | GI50 (M14 melanoma) 22.7 µM | GI50 (MCF7 breast) > 100 µM | GI50 (MDA-MB-231 breast) 18.6 µM | GI50 (MDA-MB-435) 35.5 µM | GI50 (MOLT-4 leukemia) 34.8 µM | GI50 (NCI-H23 lung) 24.7 µM | GI50 (NCI-H460 lung) > 100 µM | GI50 (NCI-H522 lung) 19.9 µM | GI50 (NCI/ADR-RES ovarian) 23 µM | GI50 (OVCAR-3 ovarian) 25.8 µM | GI50 (OVCAR-5 ovarian) 44.6 µM | GI50 (OVCAR-8 ovarian) 26.1 µM | GI50 (PC-3 prostate) 37.9 µM | GI50 (RPMI-8226 leukemia) 29.8 µM | GI50 (RXF 393 renal) 46.3 µM | GI50 (SF-268 CNS) > 100 µM | GI50 (SF-295 CNS) 26.6 µM | GI50 (SF-539 CNS) 19 µM | GI50 (SK-MEL-2 melanoma) 19.1 µM | GI50 (SK-MEL-28 melanoma) 32.9 µM | GI50 (SK-MEL-5 melanoma) 25 µM | GI50 (SK-OV-3 ovarian) 35.5 µM | GI50 (SN12C renal) 32.3 µM | GI50 (SNB-19 CNS) 47.9 µM | GI50 (SR leukemia) 27.3 µM | GI50 (SW-620 colon) 35.9 µM | GI50 (T-47D breast) 28.5 µM | GI50 (TK-10 renal) 27 µM | GI50 (U251 CNS) 26.2 µM | GI50 (UACC-257 melanoma) 30.7 µM | GI50 (UACC-62 melanoma) 24 µM | GI50 (UO-31 renal) 1.19 µM
> 100 µM: TGI (786-0 renal) | TGI (A549 NSCLC) | TGI (CAKI-1 renal) | TGI (CCRF-CEM leukemia) | TGI (COLO 205 colon) | TGI (HL-60(TB) leukemia) | TGI (HT29 colon) | TGI (MCF7 breast) | TGI (MDA-MB-435) | TGI (MOLT-4 leukemia) | TGI (NCI-H460 lung) | TGI (OVCAR-5 ovarian) | TGI (PC-3 prostate) | TGI (RPMI-8226 leukemia) | TGI (RXF 393 renal) | TGI (SF-268 CNS) | TGI (SK-OV-3 ovarian) | TGI (SN12C renal) | TGI (SNB-19 CNS) | TGI (SW-620 colon)
